From patent US12582645B2, “Chemokine CXCR4 receptor modulators and uses related thereto” (Emory University, priority 2017, dated 2026)

Molecular target: T1, CXCR4 (Homo sapiens, UniProt P61073)
T1 construct: Human T lymphoblast cells (CCRF-CEM) expressing endogenous CXCR4 receptors; endogenous in cells; host or cells: CCRF-CEM (human T lymphoblast cells)
Test: CXCR4-CEM calcium flux assay, antagonist mode (inhibition of SDF-1α-induced calcium flux)
Format: cell-based
Conditions: CCRF-CEM cells expressing endogenous CXCR4, stimulated with 4 nM SDF-1α, read-out: CXCR4 Ca^2+ Flux IC50
Method: CXCR4-CEM Calcium Flux Assays
Exemplary compounds of the invention were tested for their ability to induce or inhibit calcium flux in CCRF-CEM cells, a human cell line that endogenously expresses CXCR4. Activation of CXCR4 stimulates G protein signaling which, in CCRF-CEM cells, causes a series of downstream events that leads to the release of intracellular calcium stores, or calcium flux. Calcium ion concentrations can be easily measured using a wide variety of […] calcium indicators and, as a result, calcium flux assays are commonly employed methods for measuring G protein-coupled receptor (GPCR) activity. Because the therapeutic potential of CXCR4 antagonists as anti-cancer agents likely relies on their ability to inhibit CXCR4-mediated G protein signaling, this assay was utilized as a first-pass measure of inhibitor potency.
The cells were then equilibrated to room temperature for 30 minutes before assay. […] For “antagonist mode” assessment, the cells are subsequently incubated for 25 minutes at room temperature. SDF-1α (R&D System Cat #350-NS/CF) was then added at a final concentration of 4 nM to stimulate the cells. Inhibition of SDF-1α-induced calcium flux was monitored by FDSS6000 for 90 seconds.
After correcting for background, EC50 values were determined. […] Inhibition data for the test compound over a range of concentrations was plotted as percentage inhibition of the test compound as compared to an internal control compound.

T1 sequence (P61073 whole entry): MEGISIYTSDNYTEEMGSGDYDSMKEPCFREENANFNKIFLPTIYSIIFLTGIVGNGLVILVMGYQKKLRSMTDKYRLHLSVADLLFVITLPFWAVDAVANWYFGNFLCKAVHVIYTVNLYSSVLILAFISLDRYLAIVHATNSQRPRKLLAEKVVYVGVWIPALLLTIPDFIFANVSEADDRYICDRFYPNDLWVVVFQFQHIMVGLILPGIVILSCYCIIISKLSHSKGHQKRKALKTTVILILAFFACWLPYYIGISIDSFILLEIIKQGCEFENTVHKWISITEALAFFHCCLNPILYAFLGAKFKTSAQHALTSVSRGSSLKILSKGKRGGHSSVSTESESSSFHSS

| IC50 [µM] | Structure (SMILES) |
| --- | --- |
| > 33.3 | CC(C)(CCN)CN(C[C@H]1Cc2ccccc2CN1)[C@H]1CCCc2cccnc21 [EMU075] |
| 1 | CN(CC1CN(Cc2ccccn2)CCN1)[C@H]1CCCc2cccnc21 (single isomer, unassigned) [EMU023 (Stereoisomer 2)] |
| 0.143 | FC1(F)CCC(NCc2ccc(CN(C[C@H]3Cc4ccccc4CN3)[C@H]3CCCc4cccnc43)cc2)CC1 [EMU182, (S)—N-(4-(((4,4-difluorocyclohexyl)amino)methyl)benzyl)-N—(((R)-1,2,3,4-tetrahydroisoquinolin-3-yl)methyl)-5,6,7,8-tetrahydroquinolin-8-amine] |
| 1.2 | c1cnc2c(c1)CCC[C@@H]2N(CCCN1CCNCC1)Cc1nc2ccccc2s1 [EMU186, (S)—N-((1H-benzo[d]thiazol-2yl)methyl)-N-(3-(piperazine-1yl)propyl)-5,6,7,8-tetrahydroquinolin-8-amine] |
| 0.0207 | CN(C[C@H]1Cc2c(cccc2N2C[C@H]3C[C@@H]2CN3)CN1)[C@H]1CCCc2cccnc21 [EMU200] |
| 0.0334 | CN(CC1Cc2c(cccc2N2CCC(N)CC2)CN1)[C@H]1CCCc2cccnc21 (single isomer, unassigned) [EMU058] |
| 0.227 | NCC1=C(CN(C[C@H]2Cc3ccccc3CN2)[C@H]2CCCc3cccnc32)CCCC1 [EMU124] |
| 0.715 | c1cnc2c(c1)CCC[C@@H]2N(CC1CCCCC1)CC1Cc2c(cccc2N2CCNCC2)CN1 (single isomer, unassigned) [EMU100 (Stereoisomer 1)] |
| 0.098 | FC1(F)CCC(NC/C=C\CN(C[C@H]2Cc3ccccc3CN2)[C@H]2CCCc3cccnc32)CC1 [EMU143] |
| 0.0161 | Cc1cnc2c(c1)CCC[C@@H]2N(C)C[C@H]1Cc2c(cccc2N2CCNCC2)CN1 [EMU230, (S)—N,3-dimethyl-N—(((R)-5-(piperazin-1-yl)-1,2,3,4-tetrahydroisoquinolin-3-yl)methyl)-5,6,7,8-tetrahydroquinolin-8-amine] |
| > 33.3 | Cc1nc(CN(CCCCN)C[C@H]2Cc3ccccc3CN2)cs1 [EMU110, (R)—N1-((2-methylthiazol-4-yl)methyl)-N1-((1,2,3,4-tetrahydroisoquinolin-3-yl)methyl)butane-1,4-diamine] |
| 0.0104 | CN(C)[C@@H]1CCN(c2cccc3c2C[C@H](CN(C)[C@H]2CCCc4cccnc42)NC3)C1 [EMU237] |
| 3.84 | C[C@@H]1CN(c2cccc3c2CC(CN(C)[C@H]2CCCc4cccnc42)NC3)C[C@H](C)N1 (single isomer, unassigned) [EMU096 (Stereoisomer 2)] |
| 0.0337 | Cc1cccnc1CN(CCCN1CCNCC1)C[C@H]1Cc2c(cccc2N2CCNCC2)CN1 [EMU164, (R)—N-((3-methylpyridin-2-yl)methyl)-3-(piperazin-1-yl)-N-((5-(piperazin-1-yl)-1,2,3,4-tetrahydroisoquinolin-3-yl)methyl)propan-1-amine] |
| 0.207 | NC(=O)NC/C=C\CN(C[C@H]1Cc2ccccc2CN1)[C@H]1CCCc2cccnc21 [EMU211] |
| 0.00642 | NCC1CC1CN(C[C@H]1Cc2ccccc2CN1)[C@H]1CCCc2cccnc21 (single isomer, unassigned) [EMU030 (Stereoisomer 1)] |
| 0.146 | NC/C=C/CN(CC1Cc2ncccc2CN1)[C@H]1CCCc2cccnc21 (single isomer, unassigned) [EMU192 (Stereoisomer 1)] |
| 3.1 | Cc1ccc(CN(CCCN2CCNCC2)C[C@H]2Cc3ccccc3CN2)nc1 [EMU148, (R)—N-((5-methylpyridin-2-yl)methyl)-3-(piperazin-1-yl)-N-((1,2,3,4-tetrahydroisoquinolin-3-yl)methyl)propan-1-amine] |

| Structure (SMILES) | IC50 [µM] |
| --- | --- |
| CN(C[C@H]1Cc2c(cccc2N2CCN3CCC[C@H]3C2)CN1)[C@H]1CCCc2cccnc21 [EMU160] | 0.00292 |
| NC[C@H]1CC[C@H](CN(C[C@H]2Cc3ccccc3CN2)[C@H]2CCCc3cccnc32)CC1 [EMU121] | 0.343 |

Same assay, conditions: CXCR4 Ca^2+ Flux IC50, CCRF-CEM cells expressing endogenous CXCR4, stimulated with 4 nM SDF-1α

| Structure (SMILES) | IC50 [µM] |
| --- | --- |
| c1cnc2c(c1)CCC[C@@H]2N(CCCN1CCNCC1)Cc1cc2ccccc2cn1 [EMU168] | 0.0173 |
